Results as given in paper PMC3454376, “Salidroside Improves Behavioral and Histological Outcomes and Reduces Apoptosis via PI3K/Akt Signaling after Experimental Traumatic Brain Injury” (PLoS ONE, 2012).

Tested on: mice subjected to controlled cortical impact injury
Assay: Modified neurological severity score (mNSS) after CCI
Assay type: in vivo
Method: All animal procedures were approved by the Animal Research Committee at Cheng Hsin General Hospital (Animal permit number […] 101-08), and all procedures complied with the Guide for the Care and Use of Laboratory Animals published by the US National Institutes of Health (NIH Publication No. 85-23, revised 1996). Animals were housed under a 12-h light/dark cycle and at constant temperature (21-25°C) and humidity (45-50%). They were allowed free access to pellet chow and water. TBI in mice was induced by a CCI injury model as previously described. Briefly, 8-week-old male C57BL/6 mice (weighing 22-25 g) were anesthetized through the use of intraperitoneal injection of sodium pentobarbital (65 mg/kg; Rhone Merieux, Harlow, UK) and placed in a stereotaxic frame. A 5 mm craniotomy was performed over the right parietal cortex, centered on the coronal suture and 0.1 mm lateral to the sagittal suture, and injury to dura was avoided. […] Body temperature was monitored throughout the surgery by a rectal probe; temperature was maintained at 37.0±0.5°C using a heated pad. […] To determine the optimal dose of salidroside, a pilot study was performed using 2 different doses (20 and 50 mg/kg) administered 10 min after injury, and neurological deficits and tissue damage were evaluated as the main outcomes. […]

Q: How did the “mNSS scores versus vehicle group” value (20 mg/kg ip 10 min after CCI, days 4, 14, 21, 28, all P<0.05) turn out when `OC[C@H]1O[C@@H](OCCc2ccc(O)cc2)[C@H](O)[C@@H](O)[C@@H]1O` [SALD, salidroside] was run?
A: The value was “significant lower”.

Q: What about the “mNSS scores versus vehicle group” value (50 mg/kg ip 10 min after CCI, days 14, 21, 28, P<0.05) of the same molecule?
A: The value was “significantly lower”.
